Source: ChEMBL document CHEMBL1132035, “Guanidine-substituted imidazoles as inhibitors of nitric oxide synthase” (Bioorg Med Chem Lett, 1999)
pIC50: −log10 of the molar value. Each block holds one compound with its values, some of them ahead of it.

Columns and labels:
[1] = molecular target: T1, Nitric oxide synthase, inducible (Mus musculus, UniProt P29477); test: Inhibition of purified mouse inducible nitric oxide synthase catalyzed [14C]L-citrulline production at a compound concentration of 1 mM in presence of 50 uM L-arginine
T1 sequence (P29477 whole entry): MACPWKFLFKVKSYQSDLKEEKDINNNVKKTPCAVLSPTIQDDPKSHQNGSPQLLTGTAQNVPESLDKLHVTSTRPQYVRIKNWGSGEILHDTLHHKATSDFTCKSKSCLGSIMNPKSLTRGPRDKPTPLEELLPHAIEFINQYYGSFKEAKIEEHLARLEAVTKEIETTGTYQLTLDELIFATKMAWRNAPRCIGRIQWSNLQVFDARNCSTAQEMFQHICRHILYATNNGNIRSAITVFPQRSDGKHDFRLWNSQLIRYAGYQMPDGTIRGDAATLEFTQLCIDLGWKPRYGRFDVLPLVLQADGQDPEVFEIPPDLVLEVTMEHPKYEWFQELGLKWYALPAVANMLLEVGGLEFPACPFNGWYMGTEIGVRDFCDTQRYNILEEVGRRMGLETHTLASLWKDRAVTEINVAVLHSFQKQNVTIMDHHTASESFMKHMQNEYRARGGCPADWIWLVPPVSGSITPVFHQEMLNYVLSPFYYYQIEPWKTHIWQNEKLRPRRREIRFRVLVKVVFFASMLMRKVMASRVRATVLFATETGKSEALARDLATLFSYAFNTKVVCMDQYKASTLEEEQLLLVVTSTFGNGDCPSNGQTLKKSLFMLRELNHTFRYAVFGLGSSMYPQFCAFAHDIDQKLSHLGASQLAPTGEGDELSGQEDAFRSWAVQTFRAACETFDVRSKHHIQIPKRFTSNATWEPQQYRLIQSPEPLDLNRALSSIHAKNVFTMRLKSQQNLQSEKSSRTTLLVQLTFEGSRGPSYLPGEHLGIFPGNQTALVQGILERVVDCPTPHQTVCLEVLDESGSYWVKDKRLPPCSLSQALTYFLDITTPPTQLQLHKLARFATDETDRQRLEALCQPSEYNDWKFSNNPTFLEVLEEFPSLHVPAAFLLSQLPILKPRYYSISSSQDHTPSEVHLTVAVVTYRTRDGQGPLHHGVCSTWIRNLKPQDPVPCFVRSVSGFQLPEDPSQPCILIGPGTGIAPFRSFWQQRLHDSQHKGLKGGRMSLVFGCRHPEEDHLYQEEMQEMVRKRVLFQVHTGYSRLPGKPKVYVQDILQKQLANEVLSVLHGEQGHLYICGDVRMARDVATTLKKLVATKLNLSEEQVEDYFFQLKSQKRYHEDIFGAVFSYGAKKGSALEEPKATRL

Nitric oxide synthase 1 [2] = molecular target: T2, Nitric oxide synthase 1 (Rattus norvegicus, UniProt P29476); test: Inhibition of rat neuronal nitric oxide synthase catalyzed [14C]L-citrulline production at a compound concentration of 1 mM in presence of 50 uM L-arginine
T2 sequence (P29476 whole entry): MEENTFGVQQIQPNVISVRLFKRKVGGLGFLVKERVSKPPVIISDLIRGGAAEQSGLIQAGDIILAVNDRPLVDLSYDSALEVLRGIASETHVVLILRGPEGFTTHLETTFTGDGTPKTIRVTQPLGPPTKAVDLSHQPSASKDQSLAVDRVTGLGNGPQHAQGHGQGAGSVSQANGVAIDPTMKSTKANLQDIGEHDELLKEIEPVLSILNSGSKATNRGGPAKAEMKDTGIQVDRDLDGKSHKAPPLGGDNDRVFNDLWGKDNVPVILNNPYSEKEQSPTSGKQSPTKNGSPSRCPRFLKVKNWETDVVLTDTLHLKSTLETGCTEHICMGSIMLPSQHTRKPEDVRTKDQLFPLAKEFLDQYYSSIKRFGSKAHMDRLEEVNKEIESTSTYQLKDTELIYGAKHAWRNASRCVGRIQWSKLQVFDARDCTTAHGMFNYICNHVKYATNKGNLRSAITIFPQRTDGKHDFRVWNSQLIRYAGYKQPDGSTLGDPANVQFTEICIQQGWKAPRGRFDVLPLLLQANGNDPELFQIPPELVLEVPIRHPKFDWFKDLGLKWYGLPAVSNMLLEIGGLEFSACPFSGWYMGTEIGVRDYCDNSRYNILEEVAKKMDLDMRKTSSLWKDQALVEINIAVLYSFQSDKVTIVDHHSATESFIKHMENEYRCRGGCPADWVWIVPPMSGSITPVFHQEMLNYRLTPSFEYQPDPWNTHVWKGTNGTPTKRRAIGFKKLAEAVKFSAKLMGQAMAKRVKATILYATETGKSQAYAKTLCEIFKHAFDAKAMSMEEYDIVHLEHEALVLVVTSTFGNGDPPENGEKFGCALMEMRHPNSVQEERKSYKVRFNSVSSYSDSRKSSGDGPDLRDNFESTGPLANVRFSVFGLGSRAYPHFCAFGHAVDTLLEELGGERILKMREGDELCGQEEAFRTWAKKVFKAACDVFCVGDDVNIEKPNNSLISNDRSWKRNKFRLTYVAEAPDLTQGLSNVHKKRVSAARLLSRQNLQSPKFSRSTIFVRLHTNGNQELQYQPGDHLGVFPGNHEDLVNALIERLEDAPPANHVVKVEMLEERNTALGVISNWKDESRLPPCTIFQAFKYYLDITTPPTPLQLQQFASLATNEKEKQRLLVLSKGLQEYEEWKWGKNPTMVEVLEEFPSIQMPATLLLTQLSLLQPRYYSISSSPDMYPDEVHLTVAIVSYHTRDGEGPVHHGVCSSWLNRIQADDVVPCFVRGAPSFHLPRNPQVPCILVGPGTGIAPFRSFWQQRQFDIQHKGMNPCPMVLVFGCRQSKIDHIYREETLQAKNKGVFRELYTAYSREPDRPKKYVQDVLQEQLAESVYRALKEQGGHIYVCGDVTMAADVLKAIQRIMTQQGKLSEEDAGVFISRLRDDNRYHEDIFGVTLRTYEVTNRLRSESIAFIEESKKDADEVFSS

Nitric oxide synthase 3 [3] = molecular target: T3, Nitric oxide synthase 3 (Bos taurus, UniProt P29473); test: Inhibition of bovine endothelial nitric oxide synthase catalyzed [14C]L-citrulline production at a compound concentration of 1 mM in presence of 50 uM L-arginine
T3 sequence (P29473 whole entry): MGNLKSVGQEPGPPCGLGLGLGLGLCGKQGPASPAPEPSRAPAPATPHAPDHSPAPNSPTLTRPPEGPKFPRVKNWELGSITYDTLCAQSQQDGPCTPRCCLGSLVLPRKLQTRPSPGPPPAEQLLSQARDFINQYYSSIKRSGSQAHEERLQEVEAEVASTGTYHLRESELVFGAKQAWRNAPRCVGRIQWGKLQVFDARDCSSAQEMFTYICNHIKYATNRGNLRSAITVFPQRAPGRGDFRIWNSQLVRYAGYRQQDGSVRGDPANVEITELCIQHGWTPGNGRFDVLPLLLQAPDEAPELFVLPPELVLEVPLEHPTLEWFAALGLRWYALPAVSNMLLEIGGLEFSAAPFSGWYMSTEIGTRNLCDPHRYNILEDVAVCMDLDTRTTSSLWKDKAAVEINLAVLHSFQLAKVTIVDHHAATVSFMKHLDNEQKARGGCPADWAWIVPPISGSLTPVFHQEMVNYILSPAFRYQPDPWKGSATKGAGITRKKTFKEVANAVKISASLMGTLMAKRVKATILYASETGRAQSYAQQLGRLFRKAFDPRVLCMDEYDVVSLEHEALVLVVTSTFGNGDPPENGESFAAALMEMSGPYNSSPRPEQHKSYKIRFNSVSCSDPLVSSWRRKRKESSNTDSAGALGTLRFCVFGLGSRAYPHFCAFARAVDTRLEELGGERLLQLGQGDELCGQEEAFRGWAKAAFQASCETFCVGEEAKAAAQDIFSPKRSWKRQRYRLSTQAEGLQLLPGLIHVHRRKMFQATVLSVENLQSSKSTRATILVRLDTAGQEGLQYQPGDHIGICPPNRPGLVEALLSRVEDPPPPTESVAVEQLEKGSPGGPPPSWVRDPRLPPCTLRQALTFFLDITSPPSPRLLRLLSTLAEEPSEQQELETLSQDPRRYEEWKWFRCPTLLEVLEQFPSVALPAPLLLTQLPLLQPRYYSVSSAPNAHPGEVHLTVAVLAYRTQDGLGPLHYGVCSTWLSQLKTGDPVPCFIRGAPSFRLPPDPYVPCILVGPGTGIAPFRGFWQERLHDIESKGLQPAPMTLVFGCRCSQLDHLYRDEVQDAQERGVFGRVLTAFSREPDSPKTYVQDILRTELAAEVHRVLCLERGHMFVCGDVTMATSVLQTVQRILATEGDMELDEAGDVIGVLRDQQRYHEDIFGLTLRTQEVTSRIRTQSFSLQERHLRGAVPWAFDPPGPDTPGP

Nitric oxide synthase 1 [4] = molecular target: T2, Nitric oxide synthase 1; test: Compound was evaluated as nitric oxide producing substrate of rat Neuronal nitric oxide synthase using the Griess assay; NA means Not active
Nitric oxide synthase 3 [5] = molecular target: T3, Nitric oxide synthase 3; test: Compound was evaluated as nitric oxide producing substrate of bovine Endothelial nitric oxide synthase using the Griess assay; NA means Not active
[6] = molecular target: T1, Nitric oxide synthase, inducible; test: Compound was evaluated as nitric oxide producing substrate of mouse Inducible nitric oxide synthase using the Griess assay; NA means Not active

Structure (SMILES): N/C(=N\CCC[C@@H](N)C(=O)O)NCCc1ncc[nH]1
pIC50 (Nitric oxide synthase 1 [2]): 2.83
pIC50 (Nitric oxide synthase 3 [3]): 3.20

Structure (SMILES): N/C(=N\CCC[C@@H](N)C(=O)O)NCCc1c[nH]cn1
pIC50 (Nitric oxide synthase 3 [3]): 2.96

Structure (SMILES): N=C(N)NCc1c[nH]cn1
NO production as substrate (Nitric oxide synthase 1 [4]): Not Active
NO-producing substrate activity (Nitric oxide synthase 3 [5]): Not Active
NO production as substrate [6]: Not Active

Structure (SMILES): c1ccc(-c2ncc[nH]2)cc1 [2-PHENYLIMIDAZOLE]
pIC50 [1]: < 3.00

Structure (SMILES): c1c[nH]cn1 [IMIDAZOLE]
pIC50 [1]: 4.40

Other lines, results leading:

pIC50 [1]: 3.86
Structure (SMILES): N=C(N)NCc1ncc[nH]1

pIC50 (Nitric oxide synthase 1 [2]): 2.80
pIC50 (Nitric oxide synthase 3 [3]): 3.46
Structure (SMILES): N/C(=N\CCC[C@@H](N)C(=O)O)NCc1ncc[nH]1

NO production as substrate (Nitric oxide synthase 1 [4]): Not Active
NO-producing substrate activity (Nitric oxide synthase 3 [5]): Not Active
NO production as substrate [6]: Not Active
Structure (SMILES): N=C(N)NCCc1c[nH]cn1

NO production as substrate (Nitric oxide synthase 1 [4]): Not Active
NO-producing substrate activity (Nitric oxide synthase 3 [5]): Not Active
NO production as substrate [6]: Not Active
Structure (SMILES): N/C(=N\CCC[C@H](N)C(=O)O)NCc1c[nH]cn1

NO production as substrate (Nitric oxide synthase 1 [4]): Not Active
NO-producing substrate activity (Nitric oxide synthase 3 [5]): Not Active
NO production as substrate [6]: Not Active
Structure (SMILES): N=C(N)NCCc1ncc[nH]1
